According to patent US11767341B2, “Lincosamide antibiotics and uses thereof” (President and Fellows of Harvard College, priority 2017, dated 2023):
Converted amounts (≈) assume the structure as drawn. Where two headings read alike, the source gives them in different places.

What was measured:
Assay in all cases: MIC determination
Assay type in all cases: cell-based
[1] = test system: S. pneumoniae ATCC 49619; conditions: Streptococcus pneumoniae, ATCC49619; S. pneumoniae ATCC 49619; read-out: MIC
[2] = test system: E. coli ATCC 25922; conditions: Escherichia coli
[3] = test system: E. faecalis ATCC 29212; conditions: Enterococcus faecalis
[4] = test system: S. aureus ATCC 29213; conditions: Staphylococcus aureus, ATCC29213, S. aureus ATCC 29213; read-out: MIC
[5] = test system: S. pyogenes ATCC 19615; conditions: Streptococcus pyogenes, ATCC19615; S. pyogenes ATCC 19615; read-out: MIC
[6] = test system: E. coli MP-9 ΔTolC; conditions: Escherichia coli
[7] = test system: S. aureus MP-549 msr(a) USA 300; conditions: Staphylococcus aureus, USA300, S. aureus MP-549 msr(a) USA 300
[8] = test system: H. influenzae ATCC 49247; conditions: Haemophilus influenzae, ATCC49247
[9] = test system: E. coli MP-74 LptD mutant; conditions: Escherichia coli
[10] = test system: K. pneumoniae ATCC 10031; conditions: Klebsiella pneumoniae, ATCC10031
[11] = test system: S. aureus BAA 977 iErmA; conditions: Staphylococcus aureus, BAA977
[12] = ATCC25922, E. coli ATCC 25922, read-out: MIC
[13] = H. influenzae ATCC 49247, read-out: MIC
[14] = K. pneumoniae ATCC 10031, read-out: MIC

SMILES | MIC [1] [µg/mL] | MIC [2, 12] [µg/mL] | MIC ([3]; ATCC29212, read-out: MIC) [µg/mL] | MIC [4] [µg/mL] | MIC [5] [µg/mL] | MIC [6] [µg/mL] | MIC ([2]; ATCC25922) [µg/mL] | MIC [7] [µg/mL] | MIC [8] [µg/mL] | MIC ([3]; ATCC29212) [µg/mL] | MIC [9] [µg/mL] | MIC [10] [µg/mL] | MIC [8, 13] [µg/mL] | MIC [11] [µg/mL] | MIC [10, 14] [µg/mL]
CSC1O[C@H]([C@H](NC(=O)[C@@H]2[C@@H]3OCC=CC[C@H]3CN2C2CC2)[C@H](C)Sc2ccc(-c3cccnc3)cc2)C(O)C(O)[C@H]1O (stereo partly shown) [FSA-214009a] | 4 (≈ 6.37 µM) | > 64 | > 64 | 64 (≈ 102 µM) | 4 (≈ 6.37 µM) | – | – | – | – | – | – | – | – | – | –
CCOC(=O)CCN1C[C@@H]2CC=CCO[C@H]2[C@H]1C(=O)N[C@H]([C@H](C)Sc1ccc(-c2cccnc2)cc1)[C@H]1OC(SC)[C@H](O)[C@H](O)C1O (stereo partly shown) [FSA-214009b] | 32 (≈ 46.5 µM) | > 64 | > 64 | > 64 | 8 (≈ 11.6 µM) | – | – | – | – | – | – | – | – | – | –
CSC1O[C@H]([C@H](NC(=O)[C@H]2NC[C@@H]3CC=CCO[C@@H]32)[C@H](C)Cl)C(O)[C@@H](O)[C@H]1O (stereo partly shown) [FSA-504059] | 0.25 (≈ 0.572 µM) | – | – | 2 (≈ 4.58 µM) | 0.12 (≈ 0.275 µM) | > 64 | > 64 | 2 (≈ 4.58 µM) | > 64 | 32 (≈ 73.2 µM) | > 64 | > 64 | – | – | –
CSC1O[C@H]([C@H](NC(=O)[C@H]2NC[C@@H]3CCCCO[C@@H]32)[C@H](C)Cl)C(O)[C@@H](O)[C@H]1O (stereo partly shown) [FSA-504062] | 0.25 (≈ 0.57 µM) | – | 32 (≈ 72.9 µM) | 2 (≈ 4.56 µM) | 0.12 (≈ 0.273 µM) | > 64 | > 64 | 1 (≈ 2.28 µM) | > 64 | – | > 64 | > 64 | – | – | –
CSC1O[C@H]([C@H](NC(=O)[C@H]2NC[C@@H]3CC(c4ccc(-c5ccccc5)cc4)=CCO[C@H]32)[C@H](C)Cl)C(O)[C@@H](O)[C@H]1O (stereo partly shown) [FSA-510001] | 4 (≈ 6.79 µM) | – | – | 2 (≈ 3.39 µM) | 2 (≈ 3.39 µM) | > 64 | > 64 | – | – | 8 (≈ 13.6 µM) | 8 (≈ 13.6 µM) | > 64 | 16 (≈ 27.2 µM) | 2 (≈ 3.39 µM) | –
CSC1O[C@H]([C@H](NC(=O)[C@H]2NC[C@@H]3C=C(C#Cc4ccccc4)CCO[C@@H]23)[C@H](C)Cl)C(O)[C@@H](O)[C@H]1O (stereo partly shown) [FSA-510002] | 0.25 (≈ 0.465 µM) | – | 2 (≈ 3.72 µM) | 0.5 (≈ 0.931 µM) | 0.25 (≈ 0.465 µM) | > 64 | > 64 | – | 32 (≈ 59.6 µM) | – | 32 (≈ 59.6 µM) | – | – | 0.25 (≈ 0.465 µM) | 64 (≈ 119 µM)
CSC1O[C@H]([C@H](NC(=O)[C@H]2NC[C@@H]3C=C(C#Cc4cccc(F)c4)CCO[C@@H]23)[C@H](C)Cl)C(O)[C@@H](O)[C@H]1O (stereo partly shown) [FSA-510003] | 0.25 (≈ 0.45 µM) | – | 1 (≈ 1.8 µM) | 0.5 (≈ 0.901 µM) | 0.25 (≈ 0.45 µM) | > 64 | > 64 | – | – | – | 32 (≈ 57.7 µM) | – | 16 (≈ 28.8 µM) | 0.25 (≈ 0.45 µM) | 16 (≈ 28.8 µM)
CSC1O[C@H]([C@H](NC(=O)[C@H]2NC[C@@H]3CC(c4cccc5cnccc45)=CCO[C@H]32)[C@H](C)Cl)C(O)[C@@H](O)[C@H]1O (stereo partly shown) [FSA-510006] | 1 (≈ 1.77 µM) | – | 16 (≈ 28.4 µM) | 8 (≈ 14.2 µM) | 0.5 (≈ 0.886 µM) | > 64 | > 64 | – | > 64 | – | 64 (≈ 113 µM) | > 64 | – | 16 (≈ 28.4 µM) | –
CSC1O[C@H]([C@H](NC(=O)[C@H]2NC[C@@H]3CC(NC4CC4)CCO[C@H]32)[C@H](C)Cl)C(O)[C@@H](O)[C@H]1O (stereo partly shown) [FSA-510011] | 8 (≈ 16.2 µM) | – | – | 32 (≈ 64.8 µM) | 2 (≈ 4.05 µM) | > 64 | > 64 | – | > 64 | > 64 | > 64 | > 64 | – | 32 (≈ 64.8 µM) | –
CSC1O[C@H]([C@H](NC(=O)[C@H]2NC[C@@H]3CC(NCc4ccccc4F)CCO[C@H]32)[C@H](C)Cl)C(O)C(O)[C@H]1O (stereo partly shown) [FSA-510072] | 30 (≈ 53.4 µM) | – | – | 64 (≈ 114 µM) | 8 (≈ 14.2 µM) | > 64 | > 64 | 64 (≈ 114 µM) | > 64 | > 64 | > 64 | > 64 | – | – | –
CSC1O[C@H]([C@H](NC(=O)[C@H]2NC[C@@H]3CC(NCc4cccc(F)c4)CCO[C@H]32)[C@H](C)Cl)C(O)[C@@H](O)[C@H]1O (stereo partly shown) [FSA-510073] | 8 (≈ 14.2 µM) | – | – | 16 (≈ 28.5 µM) | 2 (≈ 3.56 µM) | > 64 | > 64 | 16 (≈ 28.5 µM) | > 64 | > 64 | > 64 | > 64 | – | – | –
